Laboratory results reported in US6887873B2, “Triazine derivatives and their application as antitelomerase agents” (Aventis Pharma S.A., priority 2001, dated 2005).

Assays:
[1] = test system: human telomerease (HL60 cell extract); assay: Antitelomerease activity: extension of oligonucleotide TS followed by PCR amplification, with HL60 extract; assay type: biochemical; conditions: read-out: TRAP IC50
Procedure: The antitelomerease biological activity is determined by the following experimental protocol:
The leukaemia line HL60 is obtained from ATCC (American Type Culture Collection, Rockville, USA). The cells are cultured in suspension in RPMI 1640 medium containing L-glutamine at 2 mM, penicillin 200 U/ml, streptomycin 200 μg/ml, gentamycin 50 μg/ml and supplemented with 10% heat-inactivated foetal calf serum.
An aliquot of 10^5 cells is centrifuged at 3000×G and the supernatant discarded. The cell pellet is resuspended by several successive pipettings in 200 μl of lysis buffer containing 0.5% CHAPS, 10 mM Tris-HCl, pH 7.5, 1 mM MgCl2, 1 mM EGTA, 5 mM β-mercaptoethanol, 0.1 mM PMSF and 10% glycerol and is stored in ice for 30 minutes. The lysate is centrifuged at 160,000×G for 20 minutes at 4° C. and 160 μl of supernatant are recovered. The proteins in the extract are assayed by the Bradford method. The extract is stored at −80° C.
The inhibition of the telomerease activity is determined by a protocol for extension of the oligonucleotide TS (^5′AATCGTTCGAGCAGAGTT^3′), in the presence of a cellular extract enriched in telomerease activity and compounds which are added at various concentrations (10, 1, 0.1 and 0.01 μM). The extension reaction is followed by a PCR amplification of the extension products with the aid of the oligonucleotides TS and CXext (^5′[…]^3′).
The reaction medium is prepared based on the following composition:
The oligonucleotides are obtained from Eurogentec (Belgium) and are stored at −20° C. at a stock concentration of 1 mg/ml in distilled water.
The reaction samples are assembled in 0.2 ml PCR tubes and one drop of paraffin oil is deposited on each of the reactions of the experiment before closing the tubes.
The reaction samples are then incubated in a Cetus 4800-type PCR apparatus under the following temperature conditions: • 15 minutes at 30° C., • 1 minute at 90° C., • followed by 30 cycles of, • 30 seconds at 94° C., • 30 seconds at 50° C., • and 1 minute 30 seconds at 72° C., • followed by a final cycle of 2 minutes at 72° C.
For each of the samples, an aliquot of 10 μl is pipetted under the oil layer and mixed with 5 μl of a loading buffer containing:
The samples are then analysed by electrophoresis on 12% acrylamide gel in a 1×TBE buffer for 1 hour at a voltage of 200 volts, with the aid of a Novex electrophoresis system.
The acrylamide gels are then dried on a sheet of Whatmann 3 mm paper at 80° C. for 1 hour.
The analysis and the quantification of the reaction products are carried out with the aid of an InstantImager apparatus (Pacard).
For each compound concentration tested, the results are expressed as percentage inhibition of the reaction and calculated from the untreated enzymatic control and from the enzyme-free sample (blank) according to the following formula: (compound value−blank value/enzymatic control value−blank value)×100.
The concentration of compound inducing a 50% inhibition of the telomerease reaction (IC50) is determined with the aid of a semilogarithmic graphical representation of the inhibition values obtained as a function of each of the compound concentrations tested.
A compound is considered to be active as an antitelomerease agent when the quantity inhibiting 50% of the telomerease reaction is in particular less than 5 μM.

[2] = test system: G-quadruplex of oligonucleotide GGGTTAGGGTTAGGGTTAGGG (3.5 repeats of the human telomereic motif); assay: G-quadruplex stabilizing activity, fluorescence Tm (FAM+DABCYL oligonucleotide); assay type: binding
Source text: The G-quadruplex stabilizing activity may be determined by a method using the formation of a complex with fluorescein of which the experimental protocol is described below.
All the nucleotides, modified or otherwise, were synthesized by Eurogentec SA, Seraing, Belgium. The oligonucleotide FAM+DABCYL carries the catalogue reference OL-0371-0802. It has the sequence: […] corresponding to 3.5 repeats of the human telomereic motif (strand rich in G). The fluorescein is attached to the 5′ end, the DABCYL to the 3′ end, by the chemical arms described by Eurogentec. The concentration of the samples is checked by spectrophotometry, recording the absorbance spectrum between 220 and 700 nm and using the molar extinction coefficient provided by the supplier.
All the experiments were carried out in a 10 mM sodium cacodylate buffer pH 7.6 containing 0.1 M lithium chloride (or sodium chloride). The absence of fluorescent contamination in the buffer was checked beforehand. The fluorescent oligonucleotide is added at the final concentration of 0.2 μM.
All the measurements of fluorescence were carried out on a Spex Fluorolog DM1B apparatus, using an excitation line width of 1.8 nm and an emission line width of 4.5 nm. The samples are placed in a microquartz cuvette of 0.2×1 cm. The temperature of the sample is controlled by an external water bath. The oligonucleotide alone was analysed at 20, 30, 40, 50, 60, 70 and 80° C. The emission spectra are recorded using an excitation wavelength of 470 nm. The excitation spectra are recorded using either 515 nm or 588 nm as emission wavelength. The spectra are corrected for the response of the instrument by reference curves. A high extinction (80-90%) of the fluorescence of fluorescein at room temperature is observed, in agreement with an intramolecular folding of the oligonucleotide at 20° C. in the form of a G-quadruplex, which induces juxtaposition of its 5′ and 3′ ends which are respectively linked to fluorescein and to DABCYL. This juxtaposition causes an already-described phenomenon of extinction of fluorescence which is used for “molecular beacons”.
An oligonucleotide stock solution at the strand concentration of 0.2 μM in 0.1 M LiCl, 10 mM cacodylate buffer, pH 7.6, is prepared beforehand, heated briefly at 90° C. and slowly cooled to 20° C., and then distributed in aliquots of 600 μl in the fluorescence cuvettes. 3 μl of water (for the control) or 3 μl of test product (stock at 200 μM, final concentration 1 μM) are then added and mixed. The samples are then allowed to incubate for at least 1 hour at 20° C. before each measurement. The use of longer incubation times (up to 24 hours) has no influence on the result obtained.
Each experiment allows the measurement of only one sample. The latter is first incubated at an initial temperature of 20° C., heated to 80° C. over 38 minutes, left for 5 minutes at 80° C. and then cooled to 20° C. over 62 minutes. During this time, the fluorescence is measured simultaneously at two emission wavelengths (515 nm and 588 nm) using 470 nm as excitation wavelength. A measurement is carried out every 30 seconds. The temperature of the water bath is recorded in parallel, and the fluorescence profile as a function of the temperature is reconstituted from these values. The fluorescence profiles are then normalized between 20° C. and 80° C., and the temperature for which the intensity of emission at 515 nm is the mean of those at high and low temperature is called Tm. Under these conditions, the Tm of the reference sample without addition of product is 44° C. in a lithium chloride buffer. This temperature is increased to more than 55° C. in a sodium chloride buffer. The addition of a G-quadruplex-stabilizing compound induces an increase in the Tm. This increase is judged to be significant if it is greater than 3°.

SMILES	IC50 [1]	G4 delta Tm [2]
Cc1cc(N(C)C)c2cc(Nc3nc(Nc4ccc5nc(C)cc(N(C)C)c5c4)nc(N4CCOCC4)n3)ccc2n1 [Example 24]	1600 nM	9.7 °C
COCCNc1nc(Nc2ccc3nc(C)cc(N(C)C)c3c2)nc(Nc2ccc3nc(C)cc(N(C)C)c3c2)n1 [Example 25]	2200 nM	4.2 °C
Cc1cc(N(C)C)c2cc(Nc3nc(NCCc4ccccc4)nc(Nc4ccc5nc(C)cc(N(C)C)c5c4)n3)ccc2n1 [Example 26]	1100 nM	4.8 °C
Cc1cc(N)c2cc(Nc3nc(Nc4ccc5nc(C)cc(N)c5c4)nc(OCCCN(C)C)n3)ccc2n1 [Example 31, 2,4-bis(4-amino-2-methylquinolin-6-yl)amino-6-(3-dimethylaminopropyl)oxy-[1,3,5]triazine]	300 nM	15.3 °C
Cc1cc(N)c2cc(Nc3nc(Nc4ccc5nc(C)cc(N)c5c4)nc(Oc4ccncc4)n3)ccc2n1 [Example 32, 2,4-bis(4-amino-2-methylquinolin-6-yl)amino-6-(pyridin-4-yl)oxy-[1,3,5]triazine]	300 nM	10.0 °C
Cc1cc(N)c2cc(Nc3nc(Nc4ccc5nc(C)cc(N)c5c4)nc(OCc4ccccc4)n3)ccc2n1 [Example 33, 2,4-bis(4-amino-2-methylquinolin-6-yl)amino-6-(phenylmethyl)oxy-[1,3,5]triazine]	400 nM	10.0 °C
CC(=O)NCCNc1nc(Nc2ccc3nc(C)cc(N)c3c2)nc(Nc2ccc3nc(C)cc(N)c3c2)n1 [Example 35]	500 nM	11.0 °C
CCN(CC)CCNc1nc(Nc2ccc3nc(C)cc(N)c3c2)nc(Nc2ccc3nc(C)cc(N)c3c2)n1 [Example 36]	240 nM	17.5 °C
Cc1cc(N)c2cc(Nc3nc(NCCN(CCN(C)C)Cc4ccccc4)nc(Nc4ccc5nc(C)cc(N)c5c4)n3)ccc2n1 [Example 37]	230 nM	17.5 °C
COC(=O)NCCNc1nc(Nc2ccc3nc(C)cc(N)c3c2)nc(Nc2ccc3nc(C)cc(N)c3c2)n1 [Example 38]	1000 nM	9.5 °C
Cc1cc(N)c2cc(Nc3nc(NCCN(C(C)C)C(C)C)nc(Nc4ccc5nc(C)cc(N)c5c4)n3)ccc2n1 [Example 39]	230 nM	19.5 °C
CCN(CC)CCN(CCN(CC)CC)c1nc(Nc2ccc3nc(C)cc(N)c3c2)nc(Nc2ccc3nc(C)cc(N)c3c2)n1 [Example 40]	230 nM	19 °C
Cc1cc(N)c2cc(Nc3nc(Nc4ccc5nc(C)cc(N)c5c4)nc(N4CCCN(C)CC4)n3)ccc2n1 [Example 42]	50 nM	15.5 °C
CCN(CC)CCN1CCN(c2nc(Nc3ccc4nc(C)cc(N)c4c3)nc(Nc3ccc4nc(C)cc(N)c4c3)n2)CC1 [Example 44]	100 nM	17 °C
Cc1cc(N)c2cc(Nc3nc(NCCN4CCCC4)nc(Nc4ccc5nc(C)cc(N)c5c4)n3)ccc2n1 [Example 46]	1000 nM	18.5 °C
Cc1cc(N)c2cc(Nc3nc(Nc4ccc5nc(C)cc(N)c5c4)nc(N(C)CC4CCN(C)CC4)n3)ccc2n1 [Example 48]	100 nM	14 °C
Cc1cc(N)c2cc(Nc3nc(NCc4ccccn4)nc(Nc4ccc5nc(C)cc(N)c5c4)n3)ccc2n1 [Example 49]	1000 nM	10 °C
Cc1cc(N)c2cc(Nc3nc(NCc4ccccc4)nc(Nc4ccc5nc(C)cc(N)c5c4)n3)ccc2n1 [Example 50]	220 nM	7 °C
COc1cccc(CNc2nc(Nc3ccc4nc(C)cc(N)c4c3)nc(Nc3ccc4nc(C)cc(N)c4c3)n2)c1 [Example 52]	1300 nM	6.5 °C
CCN(CCN(C)C)c1nc(Nc2ccc3nc(C)cc(N)c3c2)nc(Nc2ccc3nc(C)cc(N)c3c2)n1 [Example 53]	200 nM	15.5 °C
Cc1cc(N)c2cc(Nc3nc(NCC[N+](C)(C)C)nc(Nc4ccc5nc(C)cc(N)c5c4)n3)ccc2n1 [Example 54]	170 nM	16 °C
Cc1cc(N)c2cc(Nc3nc(Nc4ccc5nc(C)cc(N)c5c4)nc(Nc4cccc5cn[nH]c45)n3)ccc2n1 [Example 56]	350 nM	2.5 °C
Cc1cc(N)c2cc(Nc3nc(Nc4ccc5nc(C)cc(N)c5c4)nc(N4CCN(CCc5ccccc5)CC4)n3)ccc2n1 [Example 57]	300 nM	8 °C
Cc1cc(N)c2cc(Nc3nc(Nc4ccc5nc(C)cc(N)c5c4)nc(N4CCN(c5ncccn5)CC4)n3)ccc2n1 [Example 58]	220 nM	6 °C
Cc1cc(N)c2cc(Nc3nc(Nc4ccc5nc(C)cc(N)c5c4)nc(N4CCN(c5ccncc5)CC4)n3)ccc2n1 [Example 59]	190 nM	11 °C
Cc1cc(N)c2cc(Nc3nc(Nc4ccc5nc(C)cc(N)c5c4)nc(N4CCN(CCCN(C)C)CC4)n3)ccc2n1 [Example 64]	90 nM	12 °C
Cc1cc(N)c2cc(Nc3nc(Nc4ccc5nc(C)cc(N)c5c4)nc(N(C)C4CCN(Cc5ccccc5)C4)n3)ccc2n1 (centres unmarked) [Example 65]	1000 nM	12.5 °C
Cc1cc(N)c2cc(Nc3nc(NCc4cccnc4)nc(Nc4ccc5nc(C)cc(N)c5c4)n3)ccc2n1 [Example 66]	280 nM	9 °C
